Source: patent publication US9801901B2, “Alginate oligomers for use in overcoming multidrug resistance in bacteria” (priority 2009, dated 2017)
In brackets after ≈: the same amount, converted by molar mass. Like-named read-outs stand apart in the source and are kept apart here. Marks after values point to notes of the source that are not given here.

Key:
[1] = system: PA01 Pseudomonas aeruginosa ATCC 15692; assay: MIC assay, two-fold antibiotic dilutions in CAMHB with alginate oligomer, no visible growth; format: cell-based; conditions: Pseudomonas aeruginosa, ATCC15692, Table 1, PA01, read-out: MIC
[2] = system: Pseudomonas aeruginosa ATCC 39324, mucoid type strain (R79); assay: MIC assay, CAMHB with alginate oligomer, no visible growth; format: cell-based; conditions: Pseudomonas aeruginosa, ATCC39324, Table 1, R79, read-out: MIC
[3] = system: V9 (Egypt) Acinetobacter baumannii; assay: as above; format: cell-based; conditions: Table 5, V9 MDR Acin. baum
[4] = system: V11 5702 (Wales) E. coli; assay: as above; format: cell-based; conditions: Table 5, V11 MDR E.coli
[5] = system: V12 5725 (Wales) Klebsiella pneumoniae; assay: as above; format: cell-based; conditions: Table 5, V12 MDR Kleb pneu
[6] = system: V22 6056 Acinetobacter; assay: as above; format: cell-based, Acinetobacter lwoffii; conditions: Table 5, V22 MDR Acin. lwoff
[7] = system: strains of Klebsiella pneumoniae displaying MDR phenotypes; assay: MIC-assay, Mueller-Hinton broth with G-block alginate, 384-well, OD600 (Table 10); format: cell-based; conditions: read-out: MIC
From the text: Minimum inhibitory concentration (MICs) of different antibiotics for strains of Klebsiella pneumoniae displaying MDR phenotypes in the presence of varying concentrations of OligoCF-5/20 (0-10%). (MIC values are expressed in μg ml^−1).

[8] = system: MDR Providencia stuartii; assay: MIC-assay, Mueller-Hinton broth with G-block alginate, 384-well, OD600 (Table 11); format: cell-based; conditions: Providencia stuartii (IR57 India, V7) MDR
From the text: (§1) Minimum inhibitory concentration (MICs) of different antibiotics for strains of E. coli and Providencia stuartii displaying MDR phenotypes in the presence of varying concentrations of OligoCF-5/20 (0-10%). (MIC values are expressed in μg ml^−1).

[9] = system: strains of E. coli displaying MDR phenotypes; assay: as above; format: cell-based; conditions: Escherichia coli, Escherichia coli (5702, Wales, V11) MDR, read-out: MIC
From the text: as §1

[10] = system: Pseudomonas aeruginosa (MDR 301, PSA, V2); assay: MIC-assay, Mueller-Hinton broth with G-block alginate, 384-well, OD600; conditions: Pseudomonas aeruginosa, Table 8, V2
[11] = system: Burkholderia cepacia (1322, V23); assay: as above
[12] = system: Burkholderia cepacia (LMG18941, ATCC-BAA-246); assay: as above
[13] = system: Acinetobacter lwoffii (6056, V22); assay: as above
[14] = system: Acinetobacter baumannii (Egypt, V9); assay: as above
[15] = system: Acinetobacter lwoffii (Egypt, V10); assay: as above
[16] = Table 9, G-block (OligoCF-5/20) 0%
[17] = Table 9, G-block (OligoCF-5/20) 2%
[18] = Table 9, G-block (OligoCF-5/20) 6%
[19] = Table 9, G-block (OligoCF-5/20) 10%

CN(C)[C@@H]1C(O)=C(C(N)=O)C(=O)[C@@]2(O)C(O)=C3C(=O)c4c(O)cccc4[C@@](C)(O)[C@H]3[C@H](O)[C@@H]12 [Oxytetracycline]
MIC ([1]; OligoCF-5/20 0G): 8 µg/mL (≈ 17.4 µM)
MIC ([1]; OligoCF-5/20 +2% G): 4 µg/mL (≈ 8.69 µM)
MIC ([1]; OligoCF-5/20 +6% G): 4 µg/mL (≈ 8.69 µM)
MIC ([1]; OligoCF-5/20 +10% G): 4 µg/mL (≈ 8.69 µM)
MIC ([2]; OligoCF-5/20 0G): 8 µg/mL (≈ 17.4 µM)
MIC ([2]; OligoCF-5/20 +2% G): 4 µg/mL (≈ 8.69 µM)
MIC ([2]; OligoCF-5/20 +6% G): 4 µg/mL (≈ 8.69 µM)
MIC ([2]; OligoCF-5/20 +10% G): 2 µg/mL (≈ 4.34 µM)
MIC ([3]; Acinetobacter baumannii, OligoCF-5/20 0G, read-out: MIC): 2 µg/mL (≈ 4.34 µM)
MIC ([3]; OligoCF-5/20 +2% G): 2 µg/mL (≈ 4.34 µM)
MIC ([3]; OligoCF-5/20 +6% G): 1^† μg/ml
MIC ([3]; OligoCF-5/20 +10% G): 4^‡ μg/ml
MIC ([4]; Escherichia coli, OligoCF-5/20 0G, read-out: MIC): 0.5 µg/mL (≈ 1.09 µM)
MIC ([4]; OligoCF-5/20 +2% G): 1^‡ μg/ml
MIC ([4]; OligoCF-5/20 +6% G): 0.5 µg/mL (≈ 1.09 µM)
MIC ([4]; OligoCF-5/20 +10% G): 0.5 µg/mL (≈ 1.09 µM)
MIC ([5]; Klebsiella pneumoniae, OligoCF-5/20 0G, read-out: MIC): 1 µg/mL (≈ 2.17 µM)
MIC ([5]; OligoCF-5/20 +2% G): 1 µg/mL (≈ 2.17 µM)
MIC ([5]; OligoCF-5/20 +6% G): 1 µg/mL (≈ 2.17 µM)
MIC ([5]; OligoCF-5/20 +10% G): 1 µg/mL (≈ 2.17 µM)
MIC ([6]; Acinetobacter, OligoCF-5/20 0G, read-out: MIC): 2 µg/mL (≈ 4.34 µM)
MIC ([6]; OligoCF-5/20 +2% G): 2 µg/mL (≈ 4.34 µM)
MIC ([6]; OligoCF-5/20 +6% G): 2 µg/mL (≈ 4.34 µM)
MIC ([6]; OligoCF-5/20 +10% G): 8^‡ μg/ml
MIC ([7]; Klebsiella pneumoniae (5712, Wales, V12) MDR, G-block (OligoCF-5/20) 0%): 1 µg/mL (≈ 2.17 µM)
MIC ([7]; Klebsiella pneumoniae (5712, Wales, V12) MDR, G-block (OligoCF-5/20) 2%): 1 µg/mL (≈ 2.17 µM)
MIC ([7]; Klebsiella pneumoniae (5712, Wales, V12) MDR, G-block (OligoCF-5/20) 6%): 1 µg/mL (≈ 2.17 µM)
MIC ([7]; Klebsiella pneumoniae (5712, Wales, V12) MDR, G-block (OligoCF-5/20) 10%): 1 µg/mL (≈ 2.17 µM)
MIC ([7]; Klebsiella pneumoniae (IR25, India, V6) MDR, G-block (OligoCF-5/20) 0%): 2 µg/mL (≈ 4.34 µM)
MIC ([7]; Klebsiella pneumoniae (IR25, India, V6) MDR, G-block (OligoCF-5/20) 2%): 2 µg/mL (≈ 4.34 µM)
MIC ([7]; Klebsiella pneumoniae (IR25, India, V6) MDR, G-block (OligoCF-5/20) 6%): 2 µg/mL (≈ 4.34 µM)
MIC ([7]; Klebsiella pneumoniae (IR25, India, V6) MDR, G-block (OligoCF-5/20) 10%): 2 µg/mL (≈ 4.34 µM)
MIC ([7]; Klebsiella pneumoniae (K3, India, V8) MDR, G-block (OligoCF-5/20) 0%): 512 µg/mL (≈ 1110 µM)
MIC ([7]; Klebsiella pneumoniae (K3, India, V8) MDR, G-block (OligoCF-5/20) 2%): 512 µg/mL (≈ 1110 µM)
MIC ([7]; Klebsiella pneumoniae (K3, India, V8) MDR, G-block (OligoCF-5/20) 6%): 512 µg/mL (≈ 1110 µM)
MIC ([7]; Klebsiella pneumoniae (K3, India, V8) MDR, G-block (OligoCF-5/20) 10%): 1020 µg/mL (≈ 2220 µM)
MIC ([8]; G-block (OligoCF-5/20) 0%): 128 µg/mL (≈ 278 µM)
MIC ([8]; G-block (OligoCF-5/20) 2%): 128 µg/mL (≈ 278 µM)
MIC ([8]; G-block (OligoCF-5/20) 6%): 128 µg/mL (≈ 278 µM)
MIC ([8]; G-block (OligoCF-5/20) 10%): 128 µg/mL (≈ 278 µM)
MIC ([9]; G-block (OligoCF-5/20) 0%): 0.5 µg/mL (≈ 1.09 µM)
MIC ([9]; G-block (OligoCF-5/20) 2%): 0.5 µg/mL (≈ 1.09 µM)
MIC ([9]; G-block (OligoCF-5/20) 6%): 0.5 µg/mL (≈ 1.09 µM)
MIC ([9]; G-block (OligoCF-5/20) 10%): 0.25 µg/mL (≈ 0.543 µM)
MIC ([10]; G-block (OligoCF-5/20) 0%): 16 µg/mL (≈ 34.7 µM)
MIC ([10]; G-block (OligoCF-5/20) 2%): 16 µg/mL (≈ 34.7 µM)
MIC ([10]; G-block (OligoCF-5/20) 6%): 8 µg/mL (≈ 17.4 µM)
MIC ([10]; G-block (OligoCF-5/20) 10%): 8 µg/mL (≈ 17.4 µM)
MIC ([11]; Table 8, G-block (OligoCF-5/20) 0%): 128 µg/mL (≈ 278 µM)
MIC ([11]; Table 8, G-block (OligoCF-5/20) 2%): 128 µg/mL (≈ 278 µM)
MIC ([11]; Table 8, G-block (OligoCF-5/20) 6%): 64 µg/mL (≈ 139 µM)
MIC ([11]; Table 8, G-block (OligoCF-5/20) 10%): 64 µg/mL (≈ 139 µM)
MIC ([12]; ATCCBAA246|LMG18941, Table 8, G-block (OligoCF-5/20) 0%): 32 µg/mL (≈ 69.5 µM)
MIC ([12]; ATCCBAA246|LMG18941, Table 8, G-block (OligoCF-5/20) 2%): 16 µg/mL (≈ 34.7 µM)
MIC ([12]; ATCCBAA246|LMG18941, Table 8, G-block (OligoCF-5/20) 6%): 32 µg/mL (≈ 69.5 µM)
MIC ([12]; ATCCBAA246|LMG18941, Table 8, G-block (OligoCF-5/20) 10%): 32 µg/mL (≈ 69.5 µM)
MIC [13, 16]: < 2 µg/mL
MIC [13, 17]: < 2 µg/mL
MIC [13, 18]: < 2 µg/mL
MIC [13, 19]: < 2 µg/mL
MIC [14, 16]: 1 µg/mL (≈ 2.17 µM)
MIC [14, 17]: 0.5 µg/mL (≈ 1.09 µM)
MIC [14, 18]: 1 µg/mL (≈ 2.17 µM)
MIC [14, 19]: 0.5 µg/mL (≈ 1.09 µM)
MIC [15, 16]: 0.5 µg/mL (≈ 1.09 µM)
MIC [15, 17]: 0.5 µg/mL (≈ 1.09 µM)
MIC [15, 18]: 0.5 µg/mL (≈ 1.09 µM)
MIC [15, 19]: 0.5 µg/mL (≈ 1.09 µM)
